What follows are compounds tested against human PDE10 (Homo sapiens (Human), UniProt Q9Y233) (assay: Evaluation of enzyme inhibitory activity: human PDE10 inhibitory effect (IMAP TR-FRET)). Settings: cAMP substrate.
Assay type: biochemical
Protocol: (Evaluation of Enzyme Inhibitory Activity: Human PDE10 Inhibitory Effect)
IMAP TR-FRET Phosphodiersterase Evaluation Assay Kit (Molecular Device) was used for the measurement. Ten μL of a diluted test compound having each concentration and 5 μL of the enzyme PDE10 (BPA Bioscience) that had been diluted to 2 ng/mL with 1×IMAP Reaction Buffer (prepared with 5×included with the kit, 10 mM Tris-HCl, pH=7.2, 10 mM MgCl2, 0.05% NaN3, and 0.1% BSA) containing 0.1% BSA were added to a 384-well plate (Corning). The obtained mixture was then pre-incubated at room temperature for 5 minutes. Thereafter, 5 μL of cAMP substrate solution which was included with the kit and diluted to 400 nM with 1×IMAP Reaction Buffer containing 0.1% BSA, was added to the reaction solution, and the obtained mixture was reacted at room temperature for 60 minutes. Thereafter, 60 μL of an IMAP TR-FRET Binding solution included with the kit was further added to the reaction solution, and the obtained mixture was then left for 3 hours or more. Subsequently, using ARVO SX (PerkinElmer), the fluorescent intensity of Terbium (Emission=490 nm) and TR-FRET (Emission=520 nm) in the reaction solution were measured at an excitation wavelength of 340 nm, so as to calculate the amount of the generated 5′-AMP. The count of a well to which a solvent had been added instead of the test compound was set at 0%, and the count of a well to which the enzyme PDE10 had not been added was set at 100%. Thus, the inhibitory activity of each test compound was calculated.
The PDE10 inhibitory activity of the test compound was indicated with an IC50 value. […] The test compounds are shown in Table 3 (Table 3-1 and Table 3-2).

human PDE10, sequence (Q9Y233 whole entry): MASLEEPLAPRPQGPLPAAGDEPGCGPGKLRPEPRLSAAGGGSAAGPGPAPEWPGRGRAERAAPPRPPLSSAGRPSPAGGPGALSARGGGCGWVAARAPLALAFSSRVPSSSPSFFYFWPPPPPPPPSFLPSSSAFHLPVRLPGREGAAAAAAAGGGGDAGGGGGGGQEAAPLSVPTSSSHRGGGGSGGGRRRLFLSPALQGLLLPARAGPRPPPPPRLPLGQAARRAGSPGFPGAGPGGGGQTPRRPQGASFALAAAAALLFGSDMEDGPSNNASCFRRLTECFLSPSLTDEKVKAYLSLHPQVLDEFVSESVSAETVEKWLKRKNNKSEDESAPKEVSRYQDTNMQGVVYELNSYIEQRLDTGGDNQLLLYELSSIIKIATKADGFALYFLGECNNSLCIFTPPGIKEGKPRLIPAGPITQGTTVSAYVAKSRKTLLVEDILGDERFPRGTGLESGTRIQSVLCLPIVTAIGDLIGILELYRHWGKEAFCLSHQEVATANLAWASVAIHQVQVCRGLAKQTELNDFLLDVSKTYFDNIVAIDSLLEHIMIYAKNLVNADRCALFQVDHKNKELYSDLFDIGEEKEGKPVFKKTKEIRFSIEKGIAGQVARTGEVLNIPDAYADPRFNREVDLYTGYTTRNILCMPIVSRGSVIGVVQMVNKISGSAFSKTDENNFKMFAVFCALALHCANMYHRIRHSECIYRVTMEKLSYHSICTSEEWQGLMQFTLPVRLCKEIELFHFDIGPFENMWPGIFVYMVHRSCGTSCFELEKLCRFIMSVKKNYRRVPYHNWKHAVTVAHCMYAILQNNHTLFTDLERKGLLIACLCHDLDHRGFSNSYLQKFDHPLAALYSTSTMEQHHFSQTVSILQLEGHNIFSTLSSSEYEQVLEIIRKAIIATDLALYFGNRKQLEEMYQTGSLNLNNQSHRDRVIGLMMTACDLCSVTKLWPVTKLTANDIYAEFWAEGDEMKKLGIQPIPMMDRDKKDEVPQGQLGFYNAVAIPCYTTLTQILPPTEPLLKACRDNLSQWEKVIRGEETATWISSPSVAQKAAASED

IC50 [nM]	Compound
< 5	Cn1ncc(-c2cccc(C(F)(F)F)n2)c1C(=O)Nc1ccn2nc(N3CCCC3)nc2c1 [Example 4.27, 1-methyl-N-(2-(pyrrolidin-1-yl)-[1,2,4]triazolo[1,5-a]pyridin-7-yl)-4-(6-(trifluoromethyl)pyridin-2-yl)-1H-pyrazole-5-carboxamide]
< 5	COc1ccnc(-c2cnn(C)c2C(=O)Nc2cc3nc(-c4ccccc4)nn3cc2F)c1 [Example 3.52, N-(6-fluoro-2-phenyl-[1,2,4]triazolo[1,5-a]pyridin-7-yl)-4-(4-methoxypyridin-2-yl)-1-methyl-1H-pyrazole-5-carboxamide]
< 5	Cn1ncc(-c2cccc(C(F)(F)F)n2)c1C(=O)Nc1ccn2nc(N3CC[C@H](F)C3)nc2c1 [Example 4.16, (S)-N-(2-(3-fluoropyrrolidin-1-yl)-[1,2,4]triazolo[1,5-a]pyridin-7-yl)-1-methyl-4-(6-(trifluoromethyl)pyridin-2-yl)-1H-pyrazole-5-carboxamide]
< 5	Cc1cc(C)nc(-c2cnn(C)c2C(=O)Nc2cc3nc(-c4ccc(F)cc4)nn3cc2F)c1 [Example 3.54, 4-(4,6-dimethylpyridin-2-yl)-N-(6-fluoro-2-(4-fluorophenyl)-[1,2,4]triazolo[1,5-a]pyridin-7-yl)-1-methyl-1H-pyrazole-5-carboxamide]
< 5	COc1ccnc(-c2cnn(C)c2C(=O)Nc2ccn3nc(N4CCC[C@@H]4C)nc3c2)c1 [Example 4.5, (S)-4-(4-methoxypyridin-2-yl)-1-methyl-N-(2-(2-methylpyrrolidin-1-yl)-[1,2,4]triazolo[1,5-a]pyridin-7-yl)-1H-pyrazole-5-carboxamide]
< 5	Cc1sc(-c2cnn(C)c2C(=O)Nc2ccn3nc(N4CCC[C@@H]4C)nc3c2)nc1C(F)F [Example 4.9, (S)-4-(4-(difluoromethyl)-5-methylthiazol-2-yl)-1-methyl-N-(2-(2-methylpyrrolidin-1-yl)-[1,2,4]triazolo[1,5-a]pyridin-7-yl)-1H-pyrazole-5-carboxamide]
< 5	COc1ccccc1-c1nc2n(n1)CCC(NC(=O)c1c(-c3nc(C(F)F)cs3)cnn1C)C2 (stereo not shown) [Example 5.34, 4-(4-(difluoromethyl)thiazol-2-yl)-N-(2-(2-methoxyphenyl)-5,6,7,8-tetrahydro-[1,2,4]triazolo[1,5-a]pyridin-7-yl)-1-methyl-1H-pyrazole-5-carboxamide]
< 5	Cc1cncc(-c2cnn(C)c2C(=O)Nc2ccn3nc(N4CCC[C@@H]4C)nc3c2)n1 [Example 4.6, (S)-1-methyl-4-(6-methylpyrazin-2-yl)-N-(2-(2-methylpyrrolidin-1-yl)-[1,2,4]triazolo[1,5-a]pyridin-7-yl)-1H-pyrazole-5-carboxamide]
< 5	Cc1cccc(-c2cnn(C)c2C(=O)Nc2ccn3nc(N4CCCC4)nc3c2)n1 [Example 4.31, 1-methyl-4-(6-methylpyridin-2-yl)-N-(2-(pyrrolidin-1-yl)-[1,2,4]triazolo[1,5-a]pyridin-7-yl)-1H-pyrazole-5-carboxamide]
< 5	Cc1cc(C)nc(-c2cnn(C)c2C(=O)Nc2ccn3nc(N4CCCC4)nc3c2)c1 [Example 4.32, 4-(4,6-dimethylpyridin-2-yl)-1-methyl-N-(2-(pyrrolidin-1-yl)-[1,2,4]triazolo[1,5-a]pyridin-7-yl)-1H-pyrazole-5-carboxamide]
< 5	Cc1ncc(C)c(-c2cnn(C)c2C(=O)Nc2cc3nc(-c4cccnc4)nn3cc2F)n1 [Example 3.49, 4-(2,5-dimethylpyrimidin-4-yl)-N-(6-fluoro-2-(pyridin-3-yl)-[1,2,4]triazolo[1,5-a]pyridin-7-yl)-1-methyl-1H-pyrazole-5-carboxamide]

The remaining lines, values behind:

Compound	IC50 [nM]
Cc1cc(C)nc(-c2cnn(C)c2C(=O)Nc2cc3nc(-c4ccccc4)nn3cc2F)c1 [Example 3.11, 4-(4,6-dimethylpyridin-2-yl)-N-(6-fluoro-2-phenyl-[1,2,4]triazolo[1,5-a]pyridin-7-yl)-1-methyl-1H-pyrazole-5-carboxamide]	< 5
COc1cncc(-c2cnn(C)c2C(=O)Nc2cc3nc(-c4ccccc4)nn3cc2F)n1 [Example 3.42, N-(6-fluoro-2-phenyl-[1,2,4]triazolo[1,5-a]pyridin-7-yl)-4-(6-methoxypyrazin-2-yl)-1-methyl-1H-pyrazole-5-carboxamide]	< 5
Cn1ncc(-c2cccc(C(F)(F)F)n2)c1C(=O)Nc1ccn2cc(-c3ccccc3)nc2c1 [Example 1.6, 1-methyl-N-(2-phenylimidazo[1,2-a]pyridin-7-yl)-4-(6-(trifluoromethyl)pyridin-2-yl)-1H-pyrazole-5-carboxamide]	< 5
Cn1ncc(-c2nc(C(F)(F)F)cs2)c1C(=O)NC1CCn2c(nc(-c3ccccc3)c2F)C1 (stereo not shown) [Example 2.19, N-(3-fluoro-2-phenyl-5,6,7,8-tetrahydroimidazo[1,2-a]pyridin-7-yl)-1-methyl-4-(4-(trifluoromethyl)thiazol-2-yl)-1H-pyrazole-5-carboxamide]	< 5
Cn1ncc(-c2nc(C(F)(F)F)cs2)c1C(=O)NC1CCn2cc(-c3ccccc3)nc2C1 (stereo not shown) [Example 2.3, 1-methyl-N-(2-phenyl-5,6,7,8-tetrahydroimidazo[1,2-a]pyridin-7-yl)-4-(4-(trifluoromethyl)thiazol-2-yl)-1H-pyrazole-5-carboxamide]	< 5
Cc1sc(-c2cnn(C)c2C(=O)Nc2ccn3cc(-c4ccccc4)nc3c2)nc1C(F)F [Example 1.4, 4-(4-(difluoromethyl)-5-methylthiazol-2-yl)-1-methyl-N-(2-phenylimidazo[1,2-a]pyridin-7-yl)-1H-pyrazole-5-carboxamide]	< 5
COc1ccccc1-c1nc2cc(NC(=O)c3c(-c4nc(C(F)F)cs4)cnn3C)ccn2n1 [Example 3.16, 4-(4-(difluoromethyl)thiazol-2-yl)-N-(2-(2-methoxyphenyl)-[1,2,4]triazolo[1,5-a]pyridin-7-yl)-1-methyl-1H-pyrazole-5-carboxamide]	< 5
Cn1ncc(-c2nc(C(F)(F)F)cs2)c1C(=O)Nc1ccn2cc(-c3ccccc3)nc2c1 [Example 1.5, 1-methyl-N-(2-phenylimidazo[1,2-a]pyridin-7-yl)-4-(4-(trifluoromethyl)thiazol-2-yl)-1H-pyrazole-5-carboxamide]	< 5
Cn1ncc(-c2nc(C(F)F)cs2)c1C(=O)Nc1ccn2nc(-c3cccc(F)c3)nc2c1 [Example 3.17, 4-(4-(difluoromethyl)thiazol-2-yl)-N-(2-(3-fluorophenyl)-[1,2,4]triazolo[1,5-a]pyridin-7-yl)-1-methyl-1H-pyrazole-5-carboxamide]	< 5
Cn1ncc(-c2nc(C(F)F)cs2)c1C(=O)Nc1cc2nc(-c3ccccc3)nn2cc1F [Example 3.12, 4-(4-(difluoromethyl)thiazol-2-yl)-N-(6-fluoro-2-phenyl-[1,2,4]triazolo[1,5-a]pyridin-7-yl)-1-methyl-1H-pyrazole-5-carboxamide]	< 5
Cc1ncc(C)c(-c2cnn(C)c2C(=O)Nc2cc3nc(-c4ccccc4)nn3cc2F)n1 [Example 3.22, 4-(2,5-dimethylpyrimidin-4-yl)-N-(6-fluoro-2-phenyl-[1,2,4]triazolo[1,5-a]pyridin-7-yl)-1-methyl-1H-pyrazole-5-carboxamide]	< 5
